Results: patent publication US6936591B2, “Amorphous 9-deoxo-9a-aza-9a-methyl-9a-homoerythromycin A, process for preparing the same, and uses thereof” (Pliva Pharmaceutical Industry, Incorporated, priority 2002, dated 2005)

Experiments:
Format in all cases: physicochemical
[1] = Dissolution profiles, USP Method 2, dissolved content by HPLC
Description: For comparison, new pseudopolymorph Ic as prepared by the procedure in Example 3 above and new amorphous 9-deoxo-9a-aza-9a-methyl-9a-homoerythromycin A as prepared by the procedure in Example 11 above were used. The comparative dissolution profiles were determined by USP Method 2, PharmaTest Dissolution Tester, PTW SII; and the content of dissolved 9-deoxo-9a-aza-9a-methyl-9a-homoerythromycin A was measured by HPLC. The data thus obtained are set forth in Table 2 below, and plotted in FIGS. 8 (pH 3) and 9 (pH 6).

[2] = Intrinsic dissolution rate (IDR), Intrinsic Dissolution Tester, Van Kel Type; conditions: medium of pH 6 and 37° C.
Description: The intrinsic dissolution rates (IDR) for the new amorphous 9-deoxo-9a-aza-9a-methyl-9a-homoerythromycin A prepared according to the procedure of Example 11, and the commercial 9-deoxo-9a-aza-9a-methyl-9a-homoerythromycin A dihydrate, in medium of pH 6 and 37° C., were determined by Intrinsic Dissolution Tester, Van Kel Type. The IDR for the new amorphous 9-deoxo-9a-aza-9a-methyl-9a-homoerythromycin A was about […], about […] higher than the IDR of the prior art, i.e. 9-deoxo-9a-aza-9a-methyl-9a-homoerythromycin A dihydrate (about 1.8 mg min^−1cm^−2).

[3] = Hygroscopicity and stability at normal storage conditions

| Percent dissolved ([1]; pH 3, 37° C., 5 minutes) | Percent dissolved ([1]; pH 3, 37° C., 10 minutes) | Percent dissolved ([1]; pH 3, 37° C., 20 minutes) | Percent dissolved ([1]; pH 3, 37° C., 45 minutes) | Percent dissolved ([1]; pH 3, 37° C., 60 minutes) | Percent dissolved ([1]; pH 6, 37° C., 5 minutes) | Percent dissolved ([1]; pH 6, 37° C., 10 minutes) | Percent dissolved ([1]; pH 6, 37° C., 20 minutes) | Percent dissolved ([1]; pH 6, 37° C., 45 minutes) | Percent dissolved ([1]; pH 6, 37° C., 60 minutes) | SMILES | further results |
| --- | --- | --- | --- | --- | --- | --- | --- | --- | --- | --- | --- |
| – | – | – | – | – | – | – | – | – | – | CC[C@H]1OC(=O)[C@H](C)[C@@H](O[C@H]2C[C@@](C)(OC)[C@@H](O)[C@H](C)O2)C(C)[C@@H](O[C@@H]2O[C@H](C)C[C@H](N(C)C)[C@H]2O)[C@](C)(O)C[C@@H](C)CN(C)[C@H](C)[C@@H](O)[C@]1(C)O (stereo partly drawn) [9-deoxo-9a-aza-9a-methyl-9a-homoerythromycin A dihydrate, reference compound] | Percent dissolved ([1]; pH 3, 37° C., 5 minutes, dihydrate): 3.9%; Percent dissolved ([1]; pH 3, 37° C., 10 minutes, dihydrate): 8.1%; Percent dissolved ([1]; pH 3, 37° C., 20 minutes, dihydrate): 14.6%; Percent dissolved ([1]; pH 3, 37° C., 45 minutes, dihydrate): 26.7%; Percent dissolved ([1]; pH 3, 37° C., 60 minutes, dihydrate): 33.3%; Percent dissolved ([1]; pH 6, 37° C., 5 minutes, dihydrate): 14.5%; Percent dissolved ([1]; pH 6, 37° C., 10 minutes, dihydrate): 27.3%; Percent dissolved ([1]; pH 6, 37° C., 20 minutes, dihydrate): 44.2%; Percent dissolved ([1]; pH 6, 37° C., 45 minutes, dihydrate): 69.1%; Percent dissolved ([1]; pH 6, 37° C., 60 minutes, dihydrate): 73.7%; Intrinsic dissolution rate (IDR) ([2]; dihydrate): about 1.8 mg min^−1 cm^−2 |
| 14.3% | 26.5% | 50.5% | 85.8% | 89.5% | 78.5% | 97.5% | 98.7% | 96.7% | 95.1% | CC[C@H]1OC(=O)[C@H](C)[C@@H](O[C@H]2C[C@@](C)(OC)[C@@H](O)[C@H](C)O2)C(C)[C@@H](O[C@@H]2O[C@H](C)C[C@H](N(C)C)[C@H]2O)[C@](C)(O)C[C@@H](C)CN(C)[C@H](C)[C@@H](O)[C@]1(C)O (stereo partly drawn) [Example 11, 9-deoxo-9a-aza-9a-methyl-9a-homoerythromycin A] | Specific dissolution rate as compared with the dihydrate ([1]; compared with the dihydrate): significantly better; Intrinsic dissolution rate (IDR) [2]: about 2.79 mg min^−1 cm^−2; IDR higher than the IDR of the dihydrate ([2]; relative to commercial dihydrate): about 40%; Hygroscopicity [3]: not hygroscopic; Stability (chemical stability and stability of the "crystal" form) ([3]; normal storage conditions): stable |
| 12.3% | 29.4% | 52.5% | 92.2% | 93.2% | 74.0% | 98.8% | 98.6% | 95.3% | 94.6% | CC[C@H]1OC(=O)[C@H](C)[C@@H](O[C@H]2C[C@@](C)(OC)[C@@H](O)[C@H](C)O2)[C@H](C)[C@@H](O[C@@H]2O[C@H](C)C[C@H](N(C)C)[C@H]2O)[C@](C)(O)C[C@@H](C)CN(C)[C@H](C)[C@@H](O)[C@]1(C)O [Ic, 9-deoxo-9a-aza-9a-methyl-9a-homoerythromycin A] | – |
